Source: paper PMC11860023, “Synthesis and Characterization of Memantine-Loaded Niosomes for Enhanced Alzheimer’s Disease Targeting” (Pharmaceutics, 2025)
Converted amounts (≈) assume the structure as drawn. Marks after values point to notes of the source that are not given here.

Experiments:
[1] = test system: human fibroblast (HDFa) cell cultures; assay: Nuclear abnormality / micronucleus analysis by Hoechst 33258 staining in HDFa cells; type: cell-based; conditions: 24 h, 125 μg/mL
Description: (§1) The human fibroblast cell line (ATCC® PCS-201-012™ Manassas, VA, USA) was propagated in DMEM culture medium enriched with a 1% mixture of penicillin/streptomycin antibiotics and 10% fetal bovine serum (FBS) and maintained in an atmosphere containing 5% CO2 at a temperature of 37 °C until they reached full confluence. To identify nuclei alterations, Hoechst 33258 fluorescent dye was employed. […] Following the treatment period, the cells were stabilized using 4% paraformaldehyde at a cool temperature of 4 °C for 30 min. The cells were then rinsed with PBS and exposed to 1 µM of the Hoechst 33258 dye for a brief duration of 5 min [15]. After the staining process, the cells were examined and imaged using a Leica® DM IL LED (Leica Microsystems, Wetzlar, DE) fluorescent microscope.
Figure 4 Analysis of the genotoxic properties of synthesized memantine derivatives (MP1–4) in cultured human fibroblast cells (HDFa) using Hoechst 33258 fluorescent staining of cell nuclei. (A) MP1, (B) MP2, (C), MP3 and (D) MP4.

[2] = Drug loading (encapsulation efficiency) of niosomes, UV at 236 nm after centrifugal filtration; type: physicochemical; conditions: Span60:cholesterol 2:1, drug 1 mg/mL
Description: The efficiency of MP1–4 encapsulation within the niosomes was evaluated by quantifying the unencapsulated MP1–4. This was achieved by centrifuging the niosomal mixtures at 4 °C for 20 min at a speed of 4000 rpm, utilizing an Amicon Ultra centrifuge filter unit (Millipore Merck, Darmstadt, DE). The optical density of the supernatant containing free MP1–4 was measured at a wavelength of 236 nm with a UV–Vis spectrophotometer (Eppendorf® 580R centrifuge, Hamburg, DE). By determining the concentration of the free drug in the supernatant, we were able to calculate the unknown amount of encapsulated drug. The encapsulation efficiency percentage was then computed based on the initial molecule concentration (Ci) used in the niosome preparation versus the concentration found post-centrifugation (Cf), as in the following equation:% Loading capacity = [(Ci − Cf)/Ci] × 100 (1)
The loading capacities of the synthesized memantine derivative compounds in the niosomal drug delivery system were examined in detail. In this study, loading efficiency was determined by centrifuging niosomal formulations using an Amicon Ultra centrifuge filter device (Millipore Merck, Burlington, MA, USA) at 4000 rpm for 20 min at 4 °C. The amount of free drug remaining was recorded using a UV–Vis spectrophotometer (Eppendorf® 580R centrifuge, Hamburg, DE). […] However, the loading capacity of the memantine derivative MP2 was determined to be 53%, which is below the desired capacity.

[3] = In vitro drug release from niosomes (dialysis membrane, PBS-SDS, 37 °C); type: physicochemical; conditions: for Higuchi coefficient (kH): release from niosomal carriers, Higuchi model
Description: To investigate the drug’s release profile from the niosomes, an in vitro release study was performed. For the release study, we used loading rates calculated by a drug loading study. A 2 mL aliquot of the optimized niosomal formulation was enclosed within a dialysis membrane (with a 12 kDa molecular weight cut-off) and incubated for 72 h at 37 °C. This incubation occurred in a stirring environment within 50 mL of a release solution composed of phosphate-buffered saline with 0.5% sodium dodecyl sulfate (PBS-SDS) by w/v. Samples of 1 mL were systematically withdrawn at specific intervals (1, 2, 4, 8, and 24 h) from the release medium, with each withdrawal immediately compensated for by an equivalent volume of fresh release medium. The optical density of these samples was measured at 236 nm using a spectrophotometer. From these measurements, the quantity of memantine released was calculated, and the release percentages were reported as a proportion of the total drug release.
Drug release capacities with MP1–4 were determined using the niosomal release systems generated. […] This feature offers an important advantage in terms of controlled drug release. The drug release study was carried out by measuring the absorbance using a spectrophotometer on samples taken at specific time intervals (1, 2, 4, 8, and 24 h). These measurements were carried out at the max peak of the drugs, and the data obtained were used to determine the amount of memantine derivative drug released. The results present the percentages of the released content as a percentage of total release. […] It was also concluded that a slow and proportional release occurred over the indicated time period, indicating the potential for controlled drug release (Figure 6).

[4] = test system: differentiated SH-SY5Y cells; assay: MTT cell viability test in differentiated SH-SY5Y cell cultures; type: cell-based, human; conditions: for cell viability at the highest concentration: 500 µg/mL; for IC50: Homo sapiens, read-out: IC50 (concentration required to achieve 50% cell viability), MTT
Description: Differentiated SH-SY5Y cells were seeded into 96-well plates, with each well containing 100 μL of culture medium with 2 × 10^4 cells. […] At the end of the incubation period, 10 μL of MTT mixture was added to each well for MTT analysis. The mixture was gently stirred using a circular mixer for 1 min and then incubated in a CO2 incubator at 37 °C for 3–4 h. […] The culture medium was carefully aspirated from each compartment without disturbing the cell layer. Alternatively, before aspiration, the plate was centrifuged at 400× g for 10 min to settle non-adherent cells. Then, 100 μL of crystal solvent solution (DMSO) was added to each compartment, and the absorbance of each sample was measured at 570 nm using a microplate reader [18].

[5] = test system: differentiated SH-SY5Y cells exposed to amyloid beta 1−42 peptide; assay: Neuroprotection in the in vitro AD model (differentiated SH-SY5Y exposed to amyloid beta 1-42), MTT; type: cell-based, human; conditions: for concentration range of optimal neuroprotective activity: AD model, differentiated neuronal cultures; for increase of cell viability versus amyloid beta only control: derivative loaded into niosomal drug delivery system, 47 µg/mL, 24 h; for cell viability versus amyloid beta only control (neuroprotective effect): free compound 47 µg/mL, 10 µM amyloid beta 1−42
Description: (§2) The SH-SY5Y neuroblastoma cell line, frequently used as an in vitro model of Alzheimer’s disease, has been cultured to transform into mature neuron-like structures through differentiation with retinoic acid (RA). For this purpose, the SH-SY5Y neuroblastoma cell line was grown in a DMEM:F12 nutrient medium environment with 10% fetal bovine serum (FBS) growth factor, 1% Penicillin/streptomycin, and 5% CO2 at 37 °C. The nutrient medium was refreshed every three days, with half the volume changed. Cells were subcultured after treatment with trypsin/EDTA for 5 min. To differentiate SH-SY5Y cells, the medium containing 10 µM RA (DMEM:F12 + 15% FBS) was added. Five days after the addition of RA, the cells were washed three times with PBS and incubated in DMEM:F12. The differentiation of the cells was determined by cell cycle analysis using a flow cytometry system. […] Converted cell cultures were used as a negative control, and cell cultures with only amyloid beta were used as a positive control without adding the synthesized molecules. The viability rates in the in vitro AD model that we intended to create were analyzed with MTT cytotoxicity tests.
Differentiated SH-SY5Y cells were seeded into 96-well plates, with each well containing 100 μL of culture medium with 2 × 10^4 cells. […] At the end of the incubation period, 10 μL of MTT mixture was added to each well for MTT analysis. The mixture was gently stirred using a circular mixer for 1 min and then incubated in a CO2 incubator at 37 °C for 3–4 h. […] The culture medium was carefully aspirated from each compartment without disturbing the cell layer. Alternatively, before aspiration, the plate was centrifuged at 400× g for 10 min to settle non-adherent cells. Then, 100 μL of crystal solvent solution (DMSO) was added to each compartment, and the absorbance of each sample was measured at 570 nm using a microplate reader.
This peptide is instrumental in AD pathology and serves as a pertinent stressor for assessing the neuroprotective efficacy of potential therapeutic agents.
In the conducted in vitro studies, the neuroprotective effects of memantine derivatives encapsulated within a nanosomal drug delivery system were evaluated using the SH-SY5Y neuroblastoma cell line as a model for AD. The differentiated neuronal cultures were treated with memantine derivatives which were loaded into the niosomal drug delivery systems at a uniform concentration of 47 µg/mL across three independent experimental repeats.

[6] = test system: SH-SY5Y cells; assay: Cell cycle distribution of SH-SY5Y cells by flow cytometry after retinoic acid differentiation; type: cell-based, human; conditions: all-trans retinoic acid 10 µM, 11 days
Description: as §2
To confirm successful differentiation, flow cytometry was utilized to analyze the cell cycle distribution within the cultures.

[7] = test system: human fibroblast cells (HDFa); assay: MTT cell viability assay of MP1–4 in cultured human fibroblast cells (HDFa); type: cell-based; conditions: at each concentration applied
Description: as §1
The human fibroblast cell line HDFa was cultured and tested for toxicity with 4 different memantine derivatives in 48-well plates. The experiments, conducted in triplicate, included both treated and untreated (negative control) cell cultures. Post-treatment, the cells were incubated with an MTT mixture to assess cell viability, followed by the addition of a crystal solvent solution (DMSO) to dissolve formazan crystals formed in viable cells. The absorbance of each sample was measured to evaluate the cytotoxic effects of the memantine derivatives on the fibroblast cells. […]

[8] = test system: bEnd.3 cells / SH-SY5Y disease model; assay: In vitro BBB permeability test, transwell bEnd.3 monolayer over SH-SY5Y disease model, viability readout; type: cell-based; conditions: carrier 0.1 mg/mL loaded with 47 µg/mL vs non-loaded 47 µg/mL, 24 h
Description: In vitro BBB models were created using a transwell culture system for BBB permeability analysis. Initially, bEnd.3 cells were seeded inside the membrane of the plate at a starting density of 1 × 10^5 cells/well and cultured for about a week in DMEM growth medium supplemented with 10% fetal bovine serum. Subsequently, the upper compartments containing bEnd.3 monolayers were transferred to plates containing SH-SY5Y cells coated at the bottom of the lower compartments. Then, carrier particles were added to the apical upper chambers of the BBB models at a final concentration of 0.1 mg/mL. Approximately 24 h after incubation, viability analyses were conducted on the SH-SY5Y disease model formed in the lower layer to determine BBB permeability capacities. A schematic diagram of the method is shown below (Figure 2). Prior to starting the experimental procedures, the bEnd.3 cells were cultured until 90–100% confluency was achieved, as this confluency level is necessary for tight junction formation and optimal barrier properties. The integrity of the cell monolayer was then evaluated under an inverted microscope to confirm confluence and uniform cell distribution, ensuring the reliability of the in vitro BBB model.
In vitro BBB permeability analyses were conducted by establishing in vitro transwell BBB models, within which the effects of drug-loaded MP1–4 were studied. […]

SMILES	Mean NA/1000 Cells ± SD [1]	Nuclear Abnormalities (NA) Total Lobbed [1]	Nuclear Abnormalities (NA) Total MN [1]	Nuclear Abnormalities (NA) Total Notched [1]	Drug Loading (%) / encapsulation efficiency [2] [%]	Higuchi coefficient (kH) [3]	cell viability at the highest concentration [4]	IC50 [4] [µg/mL]	concentration range of optimal neuroprotective activity [5] [µg/mL]	increase of cell viability versus amyloid beta only control [5]	cell viability versus amyloid beta only control (neuroprotective effect) [5]	Cell Population (%) G1 Phase [6] [%]	Cell Population (%) G2 Phase [6] [%]	Cell Population (%) S Phase [6] [%]	decrease of cell viability [7] [%]	effect on cell viability / neuroprotection of niosome-loaded versus non-loaded derivative [8]	drug release behaviour from niosomal release systems ([3]; sampling at 1, 2, 4, 8 and 24 h)
CC12CC3CC(C)(C1)CC(NC(=O)CCCc1ccccc1)(C3)C2 [MP2]	0.012 ± 0.002 ^a	5	4	3	53	7.55	relatively higher cell viability	457 (≈ 1400 µM)	31.25 to 125	approximately 40%	significantly enhanced cell viability	–	–	–	–	–	–
CC1=C(/C=C/C(C)=C/C=C/C(C)=C/C(=O)O)C(C)(C)CCC1 [RA Treated, all-trans retinoic acid]	–	–	–	–	–	–	–	–	–	–	–	72.45 ± 3.78	5.34 ± 0.17	18.65 ± 3.23	–	–	–
CC12CC3CC(C)(C1)CC(NC(=O)/C=C/c1ccc(O)c(O)c1)(C3)C2 [MP4]	0.013 ± 0.003 ^a	4	5	4	≥ 85	10.82	significantly reduced	659 (≈ 1930 µM)	–	approximately 40%	significantly enhanced cell viability	–	–	–	~40	higher effect on cell viability and a significant increase in neuroprotective properties	–
CCCC(CCC)C(=O)NC12CC3CC(C)(CC(C)(C3)C1)C2 [MP1]	0.013 ± 0.001 ^a	3	5	5	≥ 85	10.36	relatively higher cell viability	5620 (≈ 18400 µM)	15.6 to 62.5	approximately 40%	significantly enhanced cell viability	–	–	–	–	higher effect on cell viability and a significant increase in neuroprotective properties	most optimal drug release
